Columns and labels:
Test in all cases: NCI-60 SRB growth inhibition, one-dose and five-dose
Type in all cases: cell-based
[1] = tested on: RPMI-8226; details: Homo sapiens
[2] = tested on: SR; details: Homo sapiens
[3] = tested on: MDA-MB-435; details: Homo sapiens
[4] = tested on: MALME-3M; details: Homo sapiens
[5] = tested on: M14; details: Homo sapiens
[6] = tested on: DU-145; details: Homo sapiens
[7] = tested on: LOX IMVI; details: Homo sapiens
[8] = tested on: TK-10; details: Homo sapiens
[9] = tested on: HCC-2998; details: Homo sapiens
[10] = tested on: HOP-92; details: Homo sapiens
[11] = tested on: PC-3; details: Homo sapiens
[12] = tested on: EKVX; details: Homo sapiens
[13] = tested on: CCRF-CEM; details: Homo sapiens
[14] = tested on: NCI-H522; details: Homo sapiens
[15] = tested on: HOP-62; details: Homo sapiens
[16] = tested on: UACC-62; details: Homo sapiens
[17] = tested on: A498; details: Homo sapiens
[18] = tested on: SN12C; details: Homo sapiens
[19] = tested on: SK-MEL-28; details: Homo sapiens
[20] = tested on: U251; details: Homo sapiens
[21] = tested on: 786-0; details: Homo sapiens
[22] = tested on: SW-620; details: Homo sapiens
[23] = tested on: NCI-H226; details: Homo sapiens
[24] = tested on: NCI-H23; details: Homo sapiens
[25] = tested on: K-562; details: Homo sapiens
[26] = tested on: SK-OV-3; details: Homo sapiens
[27] = tested on: A549/ATCC; details: Homo sapiens
[28] = tested on: NCI/ADR-RES; details: Homo sapiens
[29] = tested on: SK-MEL-5; details: Homo sapiens
[30] = tested on: MCF7; details: Homo sapiens
[31] = tested on: MDA-MB-468; details: Homo sapiens
[32] = tested on: T-47D; details: Homo sapiens, T47D
[33] = tested on: BT-549; details: Homo sapiens
[34] = tested on: ACHN; details: Homo sapiens
[35] = tested on: HT29; details: Homo sapiens
[36] = tested on: CAKI-1; details: Homo sapiens
[37] = tested on: SNB-75; details: Homo sapiens
[38] = tested on: SK-MEL-2; details: Homo sapiens, SK-MEL-2, read-out: percent growth inhibition
[39] = tested on: SF-268; details: Homo sapiens
[40] = tested on: NCI-H322M; details: Homo sapiens
[41] = tested on: OVCAR-8; details: Homo sapiens, OVCAR-8, read-out: percent growth inhibition
[42] = tested on: NCI-H460; details: Homo sapiens
[43] = tested on: KM12; details: Homo sapiens
[44] = read-out: percent growth inhibition

CC(=O)Nc1ccc(/C=C/C(=O)c2cccc(NCc3csc4ccccc34)c2)cc1 [Compound 5i, (E)-N-(4–(3-(3-((benzo[b]thiophen-3-ylmethyl)amino)phenyl)-3-oxoprop-1-en-1-yl)phenyl) acetamide]
GI50 ([1]; RPMI-8226): 2.56 µM
inhibition at 10 µM ([1]; RPMI-8226, read-out: percent growth inhibition): 121%
GI50 [2]: 2.79 µM
GI50 ([3]; MDA-MB-435): 4.37 µM
inhibition at 10 µM ([3]; MDA-MB-435, read-out: percent growth inhibition): 49.2%
GI50 [4]: 9.28 µM
inhibition at 10 µM [4, 44]: 55.5%
GI50 ([5]; M14): 10.9 µM
inhibition at 10 µM ([5]; M14, read-out: percent growth inhibition): 57.7%
GI50 ([6]; DU-145): 5.45 µM
inhibition at 10 µM ([6]; DU-145, read-out: percent growth inhibition): 74.7%
GI50 [7]: 2.05 µM
inhibition at 10 µM [7, 44]: 174%
GI50 ([8]; TK-10): 17.6 µM
inhibition at 10 µM ([8]; TK-10, read-out: percent growth inhibition): 23.9%
GI50 ([9]; HCC 2998): 12.4 µM
inhibition at 10 µM ([9]; HCC 2998, read-out: percent growth inhibition): 56%
GI50 ([10]; HOP-92): 18.3 µM
inhibition at 10 µM ([10]; HOP-92, read-out: percent growth inhibition): 12.3%
GI50 ([11]; PC-3): 4.57 µM
inhibition at 10 µM ([11]; PC-3, read-out: percent growth inhibition): 70.8%
GI50 [12]: 10.8 µM
inhibition at 10 µM [12, 44]: 73%
GI50 [13]: 2.87 µM
inhibition at 10 µM [13, 44]: 125%
GI50 ([14]; NCI-H522): 5.78 µM
inhibition at 10 µM ([14]; NCI-H522, read-out: percent growth inhibition): 87.6%
GI50 ([15]; HOP-62): 11.2 µM
inhibition at 10 µM ([15]; HOP-62, read-out: percent growth inhibition): 73.8%
GI50 ([16]; UACC-62): 6.44 µM
inhibition at 10 µM ([16]; UACC-62, read-out: percent growth inhibition): 76.7%
GI50 ([17]; A498): 17.4 µM
inhibition at 10 µM ([17]; A498, read-out: percent growth inhibition): 9.33%
GI50 [18]: 3.29 µM
inhibition at 10 µM [18, 44]: 93.3%
GI50 ([19]; SK-MEL-28): 11.9 µM
inhibition at 10 µM ([19]; SK-MEL-28, read-out: percent growth inhibition): 53.4%
GI50 ([20]; U-251): 2.24 µM
inhibition at 10 µM ([20]; U-251, read-out: percent growth inhibition): 165%
GI50 ([21]; 786-0): 11.4 µM
inhibition at 10 µM ([21]; 786-0, read-out: percent growth inhibition): 81.8%
GI50 ([22]; SW-620): 2.6 µM
inhibition at 10 µM ([22]; SW-620, read-out: percent growth inhibition): 123%
GI50 ([23]; NCI-H226): 7.73 µM
inhibition at 10 µM ([23]; NCI-H226, read-out: percent growth inhibition): 91.9%
GI50 ([24]; NCI-H23): 9.1 µM
inhibition at 10 µM ([24]; NCI-H23, read-out: percent growth inhibition): 57.5%
GI50 ([25]; K562): 3.07 µM
inhibition at 10 µM ([25]; K562, read-out: percent growth inhibition): 114%
GI50 ([26]; SK-OV-3): 16.7 µM
inhibition at 10 µM ([26]; SK-OV-3, read-out: percent growth inhibition): 1.94%
GI50 ([27]; A549): 17 µM
inhibition at 10 µM ([27]; A549, read-out: percent growth inhibition): 45.8%
GI50 [28]: 2.79 µM
inhibition at 10 µM [28, 44]: 117%
GI50 ([29]; SK-MEL-5): 5.97 µM
inhibition at 10 µM ([29]; SK-MEL-5, read-out: percent growth inhibition): 85.9%
GI50 ([30]; MCF7): 2.4 µM
inhibition at 10 µM ([30]; MCF7, read-out: percent growth inhibition): 130%
GI50 ([31]; MDA-MB-468): 4 µM
inhibition at 10 µM ([31]; MDA-MB-468, read-out: percent growth inhibition): 97.9%
GI50 [32]: 4.14 µM
inhibition at 10 µM [32, 44]: 79.7%
GI50 ([33]; BT-549): 4.29 µM
inhibition at 10 µM ([33]; BT-549, read-out: percent growth inhibition): 83.6%
GI50 [34]: 7.35 µM
inhibition at 10 µM [34, 44]: 51.4%
GI50 ([35]; HT-29): 5.38 µM
inhibition at 10 µM ([35]; HT-29, read-out: percent growth inhibition): 92.8%
GI50 ([36]; CAKI-1): 18.4 µM
inhibition at 10 µM ([36]; CAKI-1, read-out: percent growth inhibition): 57.7%
GI50 ([37]; SNB-75): 3.39 µM
inhibition at 10 µM ([37]; SNB-75, read-out: percent growth inhibition): 30.5%
inhibition at 10 µM [38]: 39.9%
GI50 ([39]; SF-268): 12.7 µM
inhibition at 10 µM ([39]; SF-268, read-out: percent growth inhibition): 80%
GI50 [40]: 17.5 µM
inhibition at 10 µM [40, 44]: 41.2%
inhibition at 10 µM [41]: 131%
GI50 ([42]; NCI-H460): 3.84 µM
inhibition at 10 µM ([42]; NCI-H460, read-out: percent growth inhibition): 88.9%
GI50 ([43]; KM12): 5.12 µM
inhibition at 10 µM ([43]; KM12, read-out: percent growth inhibition): 129%

— PMC11003488 (Journal of Enzyme Inhibition and Medicinal Chemistry, 2023)
